Measurements: patent US20250195521A1 (Revolution Medicines, Inc., priority 2020, published 2025)
Like-named read-outs stand apart in the source and are kept apart here.

Legend:
NRAS WT = NRAS WT (Homo sapiens (Human), UniProt P01111+P62937); assay: Ras-Raf disruption/FRET/MOA assay (BRAF RBD, Cyclophilin A); format: biochemical
In short: (§1)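 25 μM tagless Cyclophilin A, 12.5 nM His6-Ras-GMPPNP and 50 nM GST-BRAF RBD in HEPES pH 7.3 buffer with 5 mM MgCl2, with compound (10-point 3-fold series from 30 μM final) for 3 h at 25 °C. Anti-His Eu and anti-GST APC then added for 1.5 h. IC50 from TR-FRET ratio decrease versus DMSO.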

KRAS G13C = KRAS G13C (Homo sapiens (Human), UniProt P01116+P62937, G13C); assay: as above; format: biochemical; conditions: read-out: KRAS G13C FRET IC50
KRAS G13C, sequence (P01116 other isoform, or with tags, fused parts or gaps G13C): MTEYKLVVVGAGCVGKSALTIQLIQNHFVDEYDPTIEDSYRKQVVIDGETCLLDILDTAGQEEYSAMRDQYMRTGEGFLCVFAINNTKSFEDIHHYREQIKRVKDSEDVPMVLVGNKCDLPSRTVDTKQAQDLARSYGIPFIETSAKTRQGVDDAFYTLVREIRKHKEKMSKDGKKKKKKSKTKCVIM
KRAS G13C, sequence (P62937 whole entry): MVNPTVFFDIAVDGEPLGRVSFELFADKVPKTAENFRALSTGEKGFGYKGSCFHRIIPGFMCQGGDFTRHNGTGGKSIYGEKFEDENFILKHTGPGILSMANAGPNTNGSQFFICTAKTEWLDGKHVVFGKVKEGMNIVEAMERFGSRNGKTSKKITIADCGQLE
In short: as §1

KRAS G13D = KRAS G13D (Homo sapiens (Human), UniProt P01116+P62937, G13D); assay: as above; format: biochemical; conditions: read-out: KRAS G13D FRET data IC50
KRAS G13D, sequence (P01116 other isoform, or with tags, fused parts or gaps G13D): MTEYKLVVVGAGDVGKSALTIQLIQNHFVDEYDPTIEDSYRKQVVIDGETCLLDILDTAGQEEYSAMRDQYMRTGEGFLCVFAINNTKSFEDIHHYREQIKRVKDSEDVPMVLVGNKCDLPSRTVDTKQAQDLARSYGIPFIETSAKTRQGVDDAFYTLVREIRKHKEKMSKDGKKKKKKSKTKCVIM
KRAS G13D, sequence (P62937 whole entry): as the sequence (P62937 whole entry) above
In short: as §1

KRAS G12S = KRAS G12S (Homo sapiens (Human), UniProt P01116+P62937, G12S); assay: as above; format: biochemical; conditions: read-out: KRAS G12S FRET IC50
KRAS G12S, sequence (P01116 other isoform, or with tags, fused parts or gaps G12S): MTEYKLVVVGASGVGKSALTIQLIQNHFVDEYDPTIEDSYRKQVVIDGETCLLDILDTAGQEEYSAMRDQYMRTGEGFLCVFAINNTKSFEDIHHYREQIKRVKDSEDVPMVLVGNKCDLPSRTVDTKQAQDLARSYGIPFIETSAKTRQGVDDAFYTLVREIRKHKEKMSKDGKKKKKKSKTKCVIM
KRAS G12S, sequence (P62937 whole entry): as the sequence (P62937 whole entry) above
In short: as §1

KRAS G12C = KRAS G12C (Homo sapiens (Human), UniProt P01116+P62937, G12C); assay: as above; format: biochemical; conditions: read-out: KRAS G12C FRET IC50
KRAS G12C, sequence (P01116-2 other isoform, or with tags, fused parts or gaps G12C): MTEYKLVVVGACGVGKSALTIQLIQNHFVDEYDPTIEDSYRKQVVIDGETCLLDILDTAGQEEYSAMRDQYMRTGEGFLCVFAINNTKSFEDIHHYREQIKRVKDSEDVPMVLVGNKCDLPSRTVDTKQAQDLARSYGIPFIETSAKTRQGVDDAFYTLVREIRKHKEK
KRAS G12C, sequence (P62937 whole entry): as the sequence (P62937 whole entry) above
In short: as §1

NRAS Q61R = NRAS Q61R (Homo sapiens (Human), UniProt P01111+P62937, Q61R); assay: as above; format: biochemical
NRAS Q61R, sequence (P01111 whole entry Q61R): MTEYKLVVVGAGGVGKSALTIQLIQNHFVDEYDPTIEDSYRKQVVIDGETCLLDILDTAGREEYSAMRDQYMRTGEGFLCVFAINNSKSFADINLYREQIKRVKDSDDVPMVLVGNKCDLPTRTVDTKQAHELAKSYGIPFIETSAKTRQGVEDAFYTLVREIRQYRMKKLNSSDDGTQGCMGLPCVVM
NRAS Q61R, sequence (P62937 whole entry): as the sequence (P62937 whole entry) above
In short: as §1

KRAS G12V = KRAS G12V (Homo sapiens (Human), UniProt P01116+P62937, G12V); assay: as above; format: biochemical; conditions: read-out: KRAS G12V FRET IC50
KRAS G12V, sequence (P01116 other isoform, or with tags, fused parts or gaps G12V): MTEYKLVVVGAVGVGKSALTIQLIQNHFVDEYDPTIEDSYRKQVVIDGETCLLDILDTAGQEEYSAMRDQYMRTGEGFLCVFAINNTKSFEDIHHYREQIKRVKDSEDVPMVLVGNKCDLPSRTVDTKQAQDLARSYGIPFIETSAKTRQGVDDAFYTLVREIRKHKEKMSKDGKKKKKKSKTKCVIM
KRAS G12V, sequence (P62937 whole entry): as the sequence (P62937 whole entry) above
In short: as §1

KRAS G12D = KRAS G12D (Homo sapiens (Human), UniProt P01116+P62937, G12D); assay: as above; format: biochemical; conditions: read-out: KRAS G12D FRET IC50
KRAS G12D, sequence (P01116 other isoform, or with tags, fused parts or gaps G12D): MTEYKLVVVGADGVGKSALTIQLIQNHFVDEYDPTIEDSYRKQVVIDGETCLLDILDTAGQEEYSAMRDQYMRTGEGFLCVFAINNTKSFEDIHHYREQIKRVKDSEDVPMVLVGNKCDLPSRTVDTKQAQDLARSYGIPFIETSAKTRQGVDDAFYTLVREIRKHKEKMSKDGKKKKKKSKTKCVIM
KRAS G12D, sequence (P62937 whole entry): as the sequence (P62937 whole entry) above
In short: as §1

NRAS G12C = NRAS G12C (Homo sapiens (Human), UniProt P01111+P62937, G12C); assay: as above; format: biochemical; conditions: read-out: NRAS G12C FRET data IC50
NRAS G12C, sequence (P01111 whole entry G12C): as the sequence (P01111 whole entry Q61R) above, with G12C, R61Q counted along it
NRAS G12C, sequence (P62937 whole entry): as the sequence (P62937 whole entry) above
In short: as §1

KRAS WT = KRAS WT (Homo sapiens (Human), UniProt P01116+P62937); assay: as above; format: biochemical; conditions: read-out: KRAS WT FRET data IC50
KRAS WT, sequence (P01116 other isoform, or with tags, fused parts or gaps): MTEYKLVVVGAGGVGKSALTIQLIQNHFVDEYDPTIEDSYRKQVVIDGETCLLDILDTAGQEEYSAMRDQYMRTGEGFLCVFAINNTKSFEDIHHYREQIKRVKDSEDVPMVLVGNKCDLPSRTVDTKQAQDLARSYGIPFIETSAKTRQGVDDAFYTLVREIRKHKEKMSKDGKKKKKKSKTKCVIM
KRAS WT, sequence (P62937 whole entry): as the sequence (P62937 whole entry) above
In short: as §1

KRAS Q61H = KRAS Q61H (Homo sapiens (Human), UniProt P01116+P62937, Q61H); assay: as above; format: biochemical
KRAS Q61H, sequence (P01116 other isoform, or with tags, fused parts or gaps Q61H): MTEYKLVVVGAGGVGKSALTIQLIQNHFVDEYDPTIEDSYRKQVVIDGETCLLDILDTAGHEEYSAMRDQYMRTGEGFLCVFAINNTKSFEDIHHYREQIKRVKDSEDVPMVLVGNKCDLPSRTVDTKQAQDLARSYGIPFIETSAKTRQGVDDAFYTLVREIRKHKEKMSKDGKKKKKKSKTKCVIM
KRAS Q61H, sequence (P62937 whole entry): as the sequence (P62937 whole entry) above
In short: as §1

[1] = test system: NCI-H358 cells (K-Ras G12C); assay: CellTiter-Glo cell viability, NCI-H358; format: cell-based, human; conditions: Homo sapiens, NCI-H358, 120 h, read-out: H358 Cell Viability IC50
In short: (§2)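 Five-day treatment of K-Ras mutant cells with directly dispensed compound; ATP-based luminescence endpoint. Percent of DMSO signal fit to four-parameter logistic curve.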

[2] = test system: Capan-1 cells (K-Ras G12V); assay: CellTiter-Glo cell viability, Capan-1; format: cell-based, human; conditions: Homo sapiens, CAPAN-1, 120 h, read-out: Capan-1 Cell Viability IC50
In short: as §2

[3] = test system: K-Ras G12C (NCI-H358 cells); assay: Potency assay: pERK in NCI-H358 cells; format: cell-based, human; conditions: Homo sapiens, read-out: pERK EC50 (H358 KRAS G12C)
In short: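 Cells plated the day before were exposed for 4 h at 37° C, 5% CO2 to a 10-point, 3-fold DMSO dilution series (10 mM top stock), in duplicate. Phospho-ERK was read by AlphaLISA SureFire Ultra or by In-Cell Western with DRAQ5 DNA stain, and IC50 came from a 4-parameter sigmoidal fit.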

NRAS WT, sequence (P01111 whole entry): as the sequence (P01111 whole entry Q61R) above, with R61Q counted along it
NRAS WT, sequence (P62937 whole entry): as the sequence (P62937 whole entry) above

Row | SMILES | IC50 (NRAS WT) [nM] | IC50 (KRAS G13C) [nM] | IC50 (KRAS G13D) [nM] | IC50 (KRAS G12S) [nM] | IC50 (KRAS G12C) [nM] | IC50 (NRAS Q61R) [nM] | IC50 (KRAS G12V) [nM] | IC50 (KRAS G12D) [nM] | IC50 (NRAS G12C) [nM] | IC50 (KRAS WT) [nM] | IC50 (KRAS Q61H) [nM] | IC50 ([1]; K-Ras G12C, 5-day treatment) [nM] | EC50 ([3]; NCI-H358 cells, 4 hours) [nM] | IC50 ([2]; K-Ras G12V, 5-day treatment) [nM] | IC50 [1] [nM] | IC50 [2] [nM] | EC50 ([3]; NCI-H358, 4 h) [nM]
1 | CCn1c(-c2cccnc2[C@H](C)OC)c2c3cc(ccc31)-c1csc(n1)C[C@H](NC(=O)[C@H](C(C)C)N(C)C(=O)N1CC(S(C)(=O)=O)C1)C(=O)N1CCC[C@H](N1)C(=O)OCC(C)(C)C2 [Compound A383] | 100 to 1000 | 100 to 1000 | 100 to 1000 | 100 to 1000 | 10 to 100 | 100 to 1000 | 100 to 1000 | 100 to 1000 | 10 to 100 | 100 to 1000 | 10 to 100 | 10 to 100 | < 5000 | 10 to 100 |  |  | 
2 | CCn1c(-c2cccnc2[C@H](C)OC)c2c3cc(ccc31)-c1csc(n1)C[C@H](NC(=O)[C@H](C(C)C)N(C)C(=O)N1CC3(CC(N(C)C4COC4)C3)C1)C(=O)N1CCC[C@H](N1)C(=O)OCC(C)(C)C2 [Compound A511] | 100 to 1000 | 100 to 1000 | 1000 to 10000 | 100 to 1000 | 100 to 1000 | 100 to 1000 | 100 to 1000 | 1000 to 10000 | 100 to 1000 | 100 to 1000 | 100 to 1000 | 10 to 100 | < 5000 | 10 to 100 |  |  | 
3 | CCn1c(-c2cccnc2[C@H](C)OC)c2c3cc(ccc31)-c1csc(n1)C[C@H](NC(=O)[C@H](C(C)C)N(C)C(=O)N1C3COCC1C3)C(=O)N1CCC[C@H](N1)C(=O)OCC(C)(C)C2 [Compound A540] | 100 to 1000 | 100 to 1000 | 100 to 1000 | 100 to 1000 | 10 to 100 | 100 to 1000 | 100 to 1000 | 1000 to 10000 | 10 to 100 | 100 to 1000 | 10 to 100 |  |  |  | 10 to 100 | 10 to 100 | < 5000
4 | CCn1c(-c2cccnc2[C@H](C)OC)c2c3cc(ccc31)-c1csc(n1)C[C@H](NC(=O)[C@H](C(C)C)N(C)C(=O)N1CC(CN(C)C)C1)C(=O)N1CCC[C@H](N1)C(=O)OCC(C)(C)C2 [Compound A576] | 100 to 1000 | 100 to 1000 | 100 to 1000 | 100 to 1000 | 10 to 100 | 100 to 1000 | 100 to 1000 | 100 to 1000 | 10 to 100 | 100 to 1000 | 100 to 1000 | 10 to 100 |  | 10 to 100 |  |  | 
5 | CCn1c(-c2cccnc2[C@H](C)OC)c2c3cc(ccc31)-c1csc(n1)C[C@H](NC(=O)[C@H](C(C)C)N(C)C(=O)N1C[C@H](N)[C@@H](O)C1)C(=O)N1CCC[C@H](N1)C(=O)OCC(C)(C)C2 [Compound A581] | 100 to 1000 | 100 to 1000 | 100 to 1000 | 100 to 1000 | 10 to 100 | 100 to 1000 | 100 to 1000 | 100 to 1000 | 10 to 100 | 100 to 1000 | 10 to 100 | 100 to 1000 | < 5000 | 1000 to 10000 |  |  | 

More lines, main results first:

Row | IC50 (NRAS WT) [nM] | IC50 (KRAS G13C) [nM] | IC50 (KRAS G13D) [nM] | IC50 (KRAS G12S) [nM] | IC50 (KRAS G12C) [nM] | IC50 (NRAS Q61R) [nM] | IC50 (KRAS G12V) [nM] | IC50 (KRAS G12D) [nM] | IC50 (NRAS G12C) [nM] | IC50 (KRAS WT) [nM] | IC50 (KRAS Q61H) [nM] | IC50 ([1]; K-Ras G12C, 5-day treatment) [nM] | EC50 ([3]; NCI-H358 cells, 4 hours) [nM] | SMILES | IC50 ([2]; K-Ras G12V, 5-day treatment) [nM] | IC50 [1] [nM] | IC50 [2] [nM] | EC50 ([3]; NCI-H358, 4 h) [nM]
6 | 100 to 1000 | 100 to 1000 | 100 to 1000 | 100 to 1000 | 100 to 1000 | 100 to 1000 | 100 to 1000 | 1000 to 10000 | 100 to 1000 | 100 to 1000 | 100 to 1000 | 10 to 100 | < 5000 | CCn1c(-c2cccnc2[C@H](C)OC)c2c3cc(ccc31)-c1csc(n1)C[C@H](NC(=O)[C@H](C(C)C)N(C)C(=O)N1C[C@@H]3OCCN(C)[C@H]3C1)C(=O)N1CCC[C@H](N1)C(=O)OCC(C)(C)C2 [Compound A445] | 10 to 100 |  |  | 
7 | 10 to 100 | 100 to 1000 | 100 to 1000 | 10 to 100 | 10 to 100 | 100 to 1000 | 100 to 1000 | 100 to 1000 | 10 to 100 | 10 to 100 | 10 to 100 | 10 to 100 | < 5000 | CCn1c(-c2cccnc2[C@H](C)OC)c2c3cc(ccc31)-c1csc(n1)C[C@H](NC(=O)[C@H](C(C)C)N(C)C(=O)N1CCCC[C@H](N(C)C)C1)C(=O)N1CCC[C@H](N1)C(=O)OCC(C)(C)C2 [Compound A491] | 10 to 100 |  |  | 
8 | 100 to 1000 | 100 to 1000 | 100 to 1000 | 100 to 1000 | 10 to 100 | 100 to 1000 | 100 to 1000 | 100 to 1000 | 10 to 100 | 100 to 1000 | 10 to 100 | 10 to 100 | < 5000 | CCn1c(-c2cccnc2[C@H](C)OC)c2c3cc(ccc31)-c1csc(n1)C[C@H](NC(=O)[C@H](C(C)C)N(C)C(=O)N1CCO[C@H](c3ccccc3)C1)C(=O)N1CCC[C@H](N1)C(=O)OCC(C)(C)C2 [Compound A582] | 100 to 1000 |  |  | 
9 | 10 to 100 | 100 to 1000 | 100 to 1000 | 100 to 1000 | 10 to 100 | 100 to 1000 | 100 to 1000 | 100 to 1000 | 10 to 100 | 100 to 1000 | 10 to 100 | 10 to 100 |  | CCn1c(-c2cccnc2[C@H](C)OC)c2c3cc(ccc31)-c1csc(n1)C[C@H](NC(=O)[C@H](C(C)C)N(C)C(=O)N1CCO[C@@H](CN(C)C)C1)C(=O)N1CCC[C@H](N1)C(=O)OCC(C)(C)C2 [Compound A591] | 10 to 100 |  |  | 
10 | 10 to 100 | 100 to 1000 | 100 to 1000 | 100 to 1000 | 10 to 100 | 100 to 1000 | 100 to 1000 | 100 to 1000 | 10 to 100 | 10 to 100 | 10 to 100 | 100 to 1000 | < 5000 | CCn1c(-c2cccnc2[C@H](C)OC)c2c3cc(ccc31)-c1csc(n1)C[C@H](NC(=O)[C@H](C(C)C)N(C)C(=O)N1CCO[C@@H](c3ccccc3)C1)C(=O)N1CCC[C@H](N1)C(=O)OCC(C)(C)C2 [Compound A600] | 100 to 1000 |  |  | 
